US6136336A, “JM216 formulations” (priority 1999, dated 2000)
Entries after “also recorded” stand apart in the source; their conditions may differ.

Key:
[1] = Standard dissolution test (phosphate buffer pH 7.5, 37° C.); type: physicochemical; settings: phosphate buffer 1/15 M
From the text: The present inventors first attempted to reduce the particle size of the JM216 powder obtained from chemical synthesis by grinding or milling it to an amorphous state (as confirmed by x-ray diffraction pattern). The amorphous state indicates the disappearance of particles or crystalline drug and a particle size close to the molecular level. […] The addition of β-cyclodextrin or polymers to the JM216 during the grinding did allow obtaining the drug as an amorphous powder by reduction of the aggregation. […] The ratio of drug:β-cyclodextrin or drug:polymer also has some effect on solubility, with solubility generally increasing at higher β-cyclodextrin:drug or polymer:drug ratios. Ratios of drug:β-cyclodextrin or drug:polymer of from about 1:1 to about 1:15 (w/w) can be used with ratios of from about 1:4 to 1:15 being preferred and ratios of from about 1:9 to about 1:15 being most preferred.
Dissolution test: The ground mixture containing 5 mg. of JM216 was transferred directly into 50 ml of phosphate buffer (1/15 M, pH 7.5) kept at 37° C. and was stirred with a magnetic stirrer bar at 300 rpm. An aliquot of the solution was pipetted at the indicated time intervals and filtered through a 0.45 μm membrane filter. The concentration of the dissolved JM216 was determined by high performance liquid chromatography (HPLC).
Grinding of the JM216:β-cyclodextrin or JM216:polymer mixtures may be accomplished by standard procedures, e.g. automatic mortar and pestle machines or a hybridizer (milling machine). The time needed in the grinding process may be readily determined by simple test (period analysis of the mixture by x-ray diffraction studies). A suitable grinding time with the automatic mortar and pestle machine is three hours and with the hybridizer, five minutes.

[2] = Water-solubility of JM216 at 23° C.; type: physicochemical
From the text: Although the oral dosage form of JM216 being pursued in the clinic has obvious advantages over injectable platinum complexes such as cisplatin and carboplatin, it is reported by M. J. McKeage et al in Cancer Chemother. Pharmacol. 36: 451-458 (1995) that the current oral capsule form may have certain pharmacokinetic disadvantages.

[3] = In vitro drug absorption through excised rat rectum (Franz diffusion cell); type: in vitro ADME; settings: listed as JM216 bulk drug (non-amorphous)
Procedure: The rectum was freshly excised from each rat and was opened lengthwise using scissors. The excised rectum, serous membrane side down, was mounted on a Franz diffusion cell (reservoir volume 10 ml, 7 mm i.d. O ring flange). […] Gentamicin solution (10 mg/ml) was added to the reservoir fluid (phosphate buffer, pH 7.3) in the ratio of 1:100.
The various test samples were incorporated into standard suppository bases and then subjected to the in vitro drug absorption test. […] The suppository samples were prepared by fusion method melting the base at 50° C. for fatty bases or at 75° C. for polyethylene glycol water-soluble base. The drug was incorporated into the base at a concentration of 2 mg/80 mg base. Medium chain fatty acids (or Na salts thereof) and surface active agents were also added at the appropriate level.

[4] = cited from earlier work
[5] = oral capsule, dose levels ≥200 mg/m^2

With `CC(=O)[O][Pt]([NH2])([Cl])([Cl])([NH]C1CCCCC1)[O]C(C)=O` [JM216, bis-acetato-ammine-dichloro-cyclohexylamine-platinum (IV)] the “Dissolved JM216” value ([1]; 1 Min.) was 0.2 mg/mL, the “Dissolved JM216” value ([1]; 5 Min.) was 0.3 mg/mL and the “Dissolved JM216” value ([1]; 15 Min.) was 0.5 mg/mL. The “Dissolved JM216” value ([1]; 30 Min.) was 0.5 mg/mL, the “Dissolved JM216” value ([1]; 60 Min.) was 0.5 mg/mL and the water-solubility [2] was 300 µg/mL. The “absorption in the rat rectum model (in words)” value [3] was “little absorbed in the form of a suspension in water or in fatty suppository bases; also recorded: absorbed to some extent when incorporated into the water-soluble base, polyethylene glycol (PEG)”, the “AUC (dose proportionality)” value [4, 5] was “increased less than proportionally to dose” and the “Cmax (dose proportionality)” value [4, 5] was “increased less than proportionally to dose”. For the same molecule, the interpatient pharmacokinetic variation [4, 5] was “greater interpatient pharmacokinetic variation”, the urinary platinum recovery [4, 5] was “reduced urinary platinum recovery” and the “side effects seen with oral dosing” value ([4]; oral dosing) was “nausea and vomitting”.
